A value given as a limit tells only on which side of the number the result lay.

In one data set the test system is KB. Kind of data set: Cytotoxicity against human KB cells. It counts as functional, cell-based.
In a further data set the target is T1, DNA topoisomerase 1 (Homo sapiens, UniProt P11387).
T1 sequence (P11387 whole entry): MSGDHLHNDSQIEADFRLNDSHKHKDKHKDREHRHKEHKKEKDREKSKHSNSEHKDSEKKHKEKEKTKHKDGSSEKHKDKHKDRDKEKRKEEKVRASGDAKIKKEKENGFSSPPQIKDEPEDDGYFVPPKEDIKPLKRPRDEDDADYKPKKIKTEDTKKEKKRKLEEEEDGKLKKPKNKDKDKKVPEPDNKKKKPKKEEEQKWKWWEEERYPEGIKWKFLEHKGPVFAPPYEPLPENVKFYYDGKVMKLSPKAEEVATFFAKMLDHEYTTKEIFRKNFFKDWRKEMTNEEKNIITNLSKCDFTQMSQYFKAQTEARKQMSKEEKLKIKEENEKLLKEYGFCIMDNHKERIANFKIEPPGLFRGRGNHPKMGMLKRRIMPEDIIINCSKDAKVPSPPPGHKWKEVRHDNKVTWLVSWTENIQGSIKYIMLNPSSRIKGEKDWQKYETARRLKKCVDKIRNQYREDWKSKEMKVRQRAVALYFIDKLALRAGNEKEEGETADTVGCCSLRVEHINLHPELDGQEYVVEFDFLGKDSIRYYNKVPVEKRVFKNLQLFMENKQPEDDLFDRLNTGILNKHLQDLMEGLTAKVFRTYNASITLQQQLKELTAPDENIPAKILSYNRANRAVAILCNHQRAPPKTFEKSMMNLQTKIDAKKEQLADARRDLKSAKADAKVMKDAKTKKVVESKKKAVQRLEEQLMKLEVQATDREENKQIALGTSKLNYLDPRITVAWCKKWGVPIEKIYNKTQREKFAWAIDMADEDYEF
Kind of data set: Inhibition of DNA topoisomerase 1 (unknown origin).

The nature of data set [1]: Redox potential of compound in phosphate buffer at pH 7.2 by cyclic voltammetry. Type of data set: physicochemical.
Another data set has as its system HeLa. Kind of data set: Cytotoxicity against human HeLa cells. It counts as functional, cell-based.

Consider `COc1cccc2c1C(=O)C=CC2=O`, for which the IC50 was 23.8 µM with KB, 48 µM against DNA topoisomerase 1 and 21.7 µM in the data set on HeLa. In data set [1], this compound registered an Activity of -0.165 V.

Regarding `CCOC1=CC(=O)c2ccccc2C1=O`, the IC50 is 16.9 µM in the data set with KB and 23.8 µM in the data set on HeLa. Moreover, the Activity in data set [1] is -0.304 V.

On to `CC(=O)Oc1cccc2c1C(=O)C=CC2=O`, for which the IC50 amounted to 1.39 µM with KB and 6.48 µM with HeLa. The Activity in data set [1] was -0.208 V.

Turning to `O=C1C=CC(=O)c2c(OCc3ccccc3)cccc21`, the IC50 in the data set on KB is 8.48 µM; with HeLa, 13.8 µM. Besides, the Activity in data set [1] is -0.16 V.

Consider `O=C1C=CC(=O)c2cc(O)ccc21`, for which the IC50 in the data set with KB worked out at 13.3 µM; with HeLa it was 7.06 µM. Moreover, the Activity in data set [1] was -0.192 V.

Regarding `CS(=O)(=O)OC1=CC(=O)c2ccccc2C1=O`, the IC50 in the data set with KB stood at 7.18 µM; with HeLa, 7.61 µM. Further, the Activity in data set [1] is -0.146 V.

For `O=C1C=CC(=O)c2cc(OCc3ccccc3)ccc21`, the IC50 worked out at 26.2 µM in the data set with KB, 53.7 µM at DNA topoisomerase 1 and 16.8 µM in the data set on HeLa. For the same compound, in data set [1], the Activity is -0.207 V.

Consider `COc1ccc2c(c1)C(=O)C=CC2=O`, for which the IC50 in the data set with KB came out at 33.9 µM; with HeLa, 22.7 µM. Further, in data set [1], the Activity was -0.196 V.

With `C/C=C/C(=O)OC1=CC(=O)c2ccccc2C1=O`, the concentration for half-maximal inhibition (IC50) in the data set with KB came to 64.2 µM; in the data set on HeLa, 37.9 µM. This compound had an Activity in data set [1] of -0.413 V.

`O=C(OC1=CC(=O)c2ccccc2C1=O)c1ccccc1`: the IC50 in the data set on KB is 36.9 µM; in the data set with HeLa it was 55 µM. Moreover, the Activity in data set [1] is -0.368 V.

As for `O=C(Oc1ccc2c(c1)C(=O)C=CC2=O)c1cccs1`, the IC50 with KB was 18.3 µM; against DNA topoisomerase 1, more than 100 µM; in the data set on HeLa, 8.86 µM. This compound had an Activity in data set [1] of -0.166 V.

Turning to `O=C1C=C(Oc2ccco2)C(=O)c2ccccc21`, the IC50 was determined as 53.4 µM in the data set with KB and 37 µM with HeLa. The same compound gave an Activity in data set [1] of -0.395 V.

In the case of `O=C(Oc1cccc2c1C(=O)C=CC2=O)c1ccco1`, the IC50 in the data set with KB came out at 13.4 µM; in the data set with HeLa, 12.5 µM. The Activity in data set [1] is -0.213 V.

As to `Cc1ccc(S(=O)(=O)Oc2ccc3c(c2)C(=O)C=CC3=O)cc1`, the IC50 in the data set on KB was 16.4 µM; against DNA topoisomerase 1, more than 100 µM; in the data set on HeLa it was 15.1 µM. This compound yielded an Activity in data set [1] of -0.154 V.

Consider `Cc1ccc(S(=O)(=O)Oc2cccc3c2C(=O)C=CC3=O)cc1`, for which the IC50 in the data set on KB worked out at 10.7 µM; in the data set with HeLa, 9.47 µM. Moreover, the Activity in data set [1] is -0.151 V.

Take `CS(=O)(=O)Oc1cccc2c1C(=O)C=CC2=O`: the IC50 with KB is 27.1 µM; against DNA topoisomerase 1, more than 100 µM; with HeLa, 23.6 µM. Further, the Activity in data set [1] is -0.158 V.

For `O=C(Oc1cccc2c1C(=O)C=CC2=O)c1cccs1`, the half-inhibitory concentration (IC50) with KB is 6.23 µM; on DNA topoisomerase 1 it was more than 100 µM; with HeLa, 5.21 µM. Besides, the Activity in data set [1] was -0.212 V.

As to `CCCOC1=CC(=O)c2ccccc2C1=O`, the IC50 came out at 49.4 µM in the data set with KB and 51.6 µM with HeLa. The compound further showed an Activity in data set [1] of -0.32 V.

In the case of `CCOc1ccc2c(c1)C(=O)C=CC2=O`, the IC50 with KB came to 21.4 µM; in the data set on HeLa it was 25.1 µM. This compound displayed an Activity in data set [1] of -0.197 V.

Take `O=C(OC1=CC(=O)c2ccccc2C1=O)c1cccs1`: the IC50 with KB turned out to be 41.5 µM; in the data set on HeLa it was 35.3 µM. The compound further registered an Activity in data set [1] of -0.413 V.

`CCCCOC1=CC(=O)c2ccccc2C1=O`: the concentration for half-maximal inhibition (IC50) in the data set on KB came out at 27 µM; with HeLa, 35.3 µM. In data set [1], this compound displayed an Activity of -0.305 V.

As for `Cc1ccc(S(=O)(=O)OC2=CC(=O)c3ccccc3C2=O)cc1`, the IC50 with KB was found to be 18.8 µM; in the data set on HeLa it was 12.2 µM. The Activity in data set [1] is -0.165 V.

In the case of `CC(=O)Oc1ccc2c(c1)C(=O)C=CC2=O`, the figures for the IC50 with KB, against DNA topoisomerase 1 and in the data set on HeLa were 22.1 µM, more than 100 µM and 27.7 µM, respectively. For the same compound, the Activity in data set [1] is -0.18 V.

As to `CC(=O)OC1=CC(=O)c2ccccc2C1=O`, the results for the IC50 in the data set on KB and in the data set with HeLa were 38.8 µM and 62.1 µM, respectively. In addition, the Activity in data set [1] is -0.416 V.

Consider `O=C(Oc1ccc2c(c1)C(=O)C=CC2=O)c1ccccc1`, for which the IC50 was found to be 12.1 µM with KB and 19.2 µM in the data set on HeLa. This compound had an Activity in data set [1] of -0.174 V.

As for `O=C(Oc1ccc2c(c1)C(=O)C=CC2=O)c1ccco1`, the values for the IC50 in the data set with KB, against DNA topoisomerase 1 and with HeLa were 15.8 µM, more than 100 µM and 17.2 µM, respectively. The Activity in data set [1] was -0.16 V.

As for `C=CCOc1ccc2c(c1)C(=O)C=CC2=O`, the figures for the IC50 with KB and in the data set on HeLa were 10.2 µM and 27.2 µM, respectively. This compound also registered an Activity in data set [1] of -0.194 V.

As to `O=C(Oc1cccc2c1C(=O)C=CC2=O)c1ccccc1`, the IC50 was determined as 6.47 µM in the data set with KB, 90.6 µM at DNA topoisomerase 1 and 13 µM in the data set on HeLa. Moreover, the Activity in data set [1] is -0.208 V.

As to `CS(=O)(=O)Oc1ccc2c(c1)C(=O)C=CC2=O`, the IC50 in the data set with KB is 11.6 µM; with HeLa, 17.7 µM. The compound also registered an Activity in data set [1] of -0.15 V.

As to `COC1=CC(=O)c2ccccc2C1=O` [2-Methoxy-1,4-naphthoquinone], the IC50 stood at 17.3 µM with KB and 29.8 µM in the data set on HeLa. This compound displayed an Activity in data set [1] of -0.305 V.

With `O=C1C=CC(=O)c2c(O)cccc21` [JUGLONE], the figures for the IC50 in the data set on KB, against DNA topoisomerase 1 and with HeLa were 6.55 µM, 8.26 µM and 15.7 µM, respectively. In data set [1], this compound came in with an Activity of -0.204 V.

As to `O=C1C=C(O)C(=O)c2ccccc21` [LAWSONE], the IC50 in the data set on KB came out at 105 µM; with HeLa it was 71.3 µM. In data set [1], the Activity was -0.431 V.

Consider `CC1=CC(=O)c2c(O)cccc2C1=O` [PLUMBAGIN], for which the half-inhibitory concentration (IC50) stood at 9.83 µM in the data set with KB and 10.2 µM with HeLa. Moreover, the Activity in data set [1] was -0.346 V.

For orientation: IC50 means the concentration that inhibits the measured activity by half.

Values taken from ChEMBL document CHEMBL4814021, “Synthesis, biological evaluation, and correlation of cytotoxicity versus redox potential of 1,4-naphthoquinone derivatives” (Bioorg Med Chem Lett, 2021).
